Reference: article PMC10191325 (PLOS Neglected Tropical Diseases, 2023)

Legend:
[1] = target: T1, WbDHFR (dihydrofolate reductase) (Wuchereria bancrofti, UniProt J9F199); test: biochemical; set-up: gene WUBG_00817
[2] = target: T1, WbDHFR (dihydrofolate reductase); test: X-ray crystal structure ([…] Å) and tryptophan fluorescence equilibrium titration; format: binding; set-up: gene WUBG_00817; open reading frame with engineered N-terminal His6-tag

Compound | IC50 [1] | Kd [2]
COc1cc(NCc2ccc3nc(N)nc(N)c3c2C)cc(OC)c1OC [TMX, trimetrexate] | 490 ± 160 nM | –
Nc1nc2ncc(CNc3ccc(C(=O)N[C@@H](CCC(=O)O)C(=O)O)cc3)nc2c(=O)[nH]1 [folate] | – | 23 ± 4 nM
NC(=O)C1=CN([C@@H]2O[C@H](COP(=O)(O)OP(=O)(O)OC[C@H]3O[C@@H](n4cnc5c(N)ncnc54)[C@H](OP(=O)(O)O)[C@@H]3O)[C@@H](O)[C@H]2O)C=CC1 [NADPH] | – | 90 ± 29 nM
